Reference: EP2054020B1, “COSMETIC COMPOSITION COMPRISING PURINE AND/OR A PURINE DERIVATIVE AND TAURINE” (Henkel AG & Co. KGaA, priority 2006, dated 2008)

What was measured:
HGF [1] = assay: Differential gene expression by qRT-PCR in dermal papilla cells: HGF; format: cell-based; conditions: 24 h, Taurin 0,5 %, Coffein 0,025 %; for HGF Mittelwert: untreated Kontrolle = 1, spread in brackets, 4 biological replicates, >=2 or <=0,5 signifikant, >=1,5 or <=0,6 tendenziell; for Expression von HGF: result in words
Excerpt: (§1) Tabelle 2: Untersuchte Lösungen
(§2) Hepatocyte Growth Factor (HGF) und Keratinocyte Growth Factor (KGF) sind wichtige Wachstumsfaktoren, die von den dermalen Papillenzellen synthetisiert werden. Im Speziellen stimuliert HGF das Follikelwachstum und KGF die Keratinozytenproliferation. Entsprechend werden HGF und KGF in der Wachstumsphase vermehrt exprimiert.
(§3) Die differentielle Genexpression wurde mittels quantitatitiver Reverse-Transkription Polymerase Kettenreaktion (qRT-PCR) bestimmt. Nach Anzucht der dermalen Papillenzellen wurden jeweils 4 biologische Replikate für 24 h mit den Lösungen gemäß Tabelle 2 inkubiert. Zur Durchführung der qRT-PCR wird zunächst mit Hilfe des RNeasy Mini Kits der Fa. Qiagen die RNA aus den dermalen Papillenzellen isoliert und mittels reverser Transkription in cDNA umgeschrieben. Bei der anschließenden PCR Reaktion, die mit Hilfe genspezifischer Primer für die jeweiligen haarrelevanten Gene durchgeführt wird und die der Amplifikation der gesuchten Genabschnitte dient, wird die Bildung der PCR-Produkte online über ein Fluoreszenzsignal detektiert. Das Fluoreszenzsignal ist dabei proportional zur Menge des gebildeten PCR-Produktes. Je stärker die Expression eines bestimmten Gens ist, desto größer ist die Menge an gebildetem PCR-Produkt und umso höher ist das Fluoreszenzsignal.
(§4) Zur Quantifizierung der Genexpression wird die unbehandelte Kontrolle gleich 1 gesetzt und die Expression der zu bestimmenden Gene darauf bezogen (x-fache Expression). Dabei werden Werte, die größer/gleich der 2-fachen Expression oder kleiner/gleich der 0,5-fachen Expression der unbehandelten Kontrolle sind als signifikant differentiell exprimiert eingestuft. Werte die größer/gleich der 1,5-fachen Expression oder kleiner/gleich der 0,6-fachen Expression der unbehandelten Kontrolle sind, werden als tendenziell differentiell exprimiert eingestuft. Die Ergebnisse sind in Tabelle 4 zusammengefasst.

KGF [2] = assay: Growth factor release (ELISA) from reconstructed dermal papillae: KGF; format: cell-based; conditions: 24 h, Taurin 0,5 %, Coffein 0,025 %; for KGF-Freisetzung Mittelwert: quadruplicates, compared with untreated Kontrolle = 100, spread in brackets; for Steigerung der KGF Ausschüttung: increase over untreated control
Excerpt: (§5) Die beiden Wachstumsfaktoren Hepatocyte Growth Factor (HGF) und Keratinocyte Growth Factor (KGF) sind wichtige Regulatoren des Haarzyklus. Bei potentiell wachstumsfördemden und den vorzeitigen Haarverlust vermindernden Substanzen kann von einer Steigerung eines der ausgeschütteten Faktoren ausgegangen werden. Die Ausschüttung von HGF sowie KGF kann mit Hilfe von kommerziell erhältlichen ELISA-Kits quantifiziert werden.
(§6) Die Ergebnisse finden sich in Tabelle 5 wieder. Tabelle 5: KGF- und HGF-Freisetzung in [%] nach Behandlung rekonstruierter dermaler Papillen im Vergleich zu unbehandelten Kontrollen.

HGF [3] = assay: Growth factor release (ELISA) from reconstructed dermal papillae: HGF; format: cell-based; conditions: 24 h, Taurin 0,5 %, Coffein 0,025 %; for HGF-Freisetzung Mittelwert: quadruplicates, compared with untreated Kontrolle = 100, spread in brackets; for Steigerung der HGF-Ausschüttung: increase over untreated control
Excerpt: as §5, §6

KGF [4] = assay: Differential gene expression by qRT-PCR in dermal papilla cells: KGF; format: cell-based; conditions: 24 h, Taurin 0,5 %, Coffein 0,025 %; for KGF Mittelwert: untreated Kontrolle = 1, spread in brackets, 4 biological replicates, >=2 or <=0,5 signifikant, >=1,5 or <=0,6 tendenziell; for Expression von KGF: result in words
Excerpt: as §1, §2, §3, §4

IGFBP3 = assay: Differential gene expression by qRT-PCR in dermal papilla cells: IGFBP3; format: cell-based; conditions: 24 h, Taurin 0,5 %, Coffein 0,025 %; for IGFBP3 Mittelwert: untreated Kontrolle = 1, spread in brackets, 4 biological replicates, >=2 or <=0,5 signifikant, >=1,5 or <=0,6 tendenziell; for Expression von IGF-BP3: result in words
Excerpt: as §1
Diesen Eigenschaften gegenüber steht die Expression von IGFBP-3. Dieses Genprodukt führt neben Anderen zu einer.Verschiebung des Zyklus von der Wachstums- zur Regressionsphase. Nach Applikation von Substanzen, die Effekte am biologisch aktiven Teil des Haares hervorrufen, könnte die Bestimmung der Veränderungen der Expression dieses Gens Aussagen über Haarwuchsstimulantien oder -inhibitoren liefern.
as §3, §4

[5] = test system: kultivierte dermale Papillenzellen
Excerpt: Die Bestimmung der Freisetzung von Laktat-Dehydrogenase (LDH) kultivierter Zellen gibt Auskunft über die Schädigung der Zellmembran. In unbeschädigten Zellen ist LDH ausschließlich im Zytoplasma lokalisiert. Erst durch Schädigung der Zellmembran kann LDH in das umgebende Kulturmedium diffundieren. Mit Hilfe eines Substrat-gekoppelten kolorimetrischen Testsystems kann die Menge an freigesetztem LDH bestimmt werden.
Zur Bestimmung möglicher zellschädigender Nebeneffekte wurden kultivierte dermale Papillenzellen mit den in Tabelle 2 aufgeführten Lösungen kultiviert und nach Behandlung die Menge an LDH im Medium analysiert. Es wurde die Zeit bestimmt, die benötigt wird, um eine definierte Menge an Farbstoff umzusetzen. […] Hierbei gilt, dass Werte < 80 % auf mögliche zellschädigende Reaktionen hindeuten.

| SMILES | HGF Mittelwert (HGF [1]) | Expression von HGF (HGF [1]) | KGF-Freisetzung Mittelwert (KGF [2]) | Steigerung der KGF Ausschüttung (KGF [2]) [%] | HGF-Freisetzung Mittelwert (HGF [3]) | Steigerung der HGF-Ausschüttung (HGF [3]) [%] | KGF Mittelwert (KGF [4]) | Expression von KGF (KGF [4]) | IGFBP3 Mittelwert (IGFBP3) | Expression von IGF-BP3 (IGFBP3) | Freisetzung von LDH Mittelwert (%) [5] | zellschädigende Effekte [5] |
| --- | --- | --- | --- | --- | --- | --- | --- | --- | --- | --- | --- | --- |
| Cn1c(=O)c2c(ncn2C)n(C)c1=O [Coffein, reference compound] | 1,62 (0,46) x-fache Expression | tendenzielle Aktivierung | 119 (9,7) % | 10 | 170 (35,8) % | 70 | 1,44 (0,13) x-fache Expression | tendenzielle Aktivierung | 0,44 (0,07) x-fache Expression | signifikante Deaktivierung | – | – |
| NCCS(=O)(=O)O [Taurin, 2-Aminoethansulfonsäure] | 1,03 (0,30) x-fache Expression | keinen signifikanten Änderungen | 110(11,5) % | 19 | 152 (29,9) % | 52 | 1,08 (0,12) x-fache Expression | keinen signifikanten Änderungen | 1,41 (0,18) x-fache Expression | keinen signifikanten Änderungen | 134,1% | weder nach Behandlung mit Taurin oder Coffein allein, noch mit einem Gemisch beider Verbindungen zellschädigende Effekte nachgewiesen werden können |
